The values below come from US20250368651A1 (priority 2022, published 2025).

Read-outs that look alike come from different tables or passages of the source.

One data set relates to SARS-CoV-2 5′ UTR. In words: SARS-CoV-2 5′ UTR expressing 293T cells (Gaussia luciferase cassette), RNA reduction. In kind it is cell-based.
Data set [1] has as its system SARS-CoV-2 minigene mRNA (5′ and 3′ UTRs, Gaussia luciferase). In words: SARS-CoV-2 minigene HEK293 cell model, RT-qPCR of viral minigene mRNA. The data set is classed as cell-based. The following applies: 24 hours.
Data set [2] has as its target von Hippel-Lindau (VHL) E3 ligase (Homo sapiens, UniProt P40337). The settings on record: cited from earlier work.
For a further data set, the system named is gene splicing. The settings on record: cited from earlier work.
For data set [3], the target named is COVID RNA (SARS-CoV-2 RNA SL5 per FIG. 8). Kind of data set: FP binding, Kd for COVID RNA.
The test system of a further data set is SARS-CoV-2 SL5 RNA. In words: Deconvolution of the RNA-binding site within SL5. The following applies: FIG. 7D.
Data set [4] has as its target DNA Seq6 (UGAAGGAAGGU as deoxyribonucleotides). In words: FP binding assay, DNA Seq6. The following applies: footnote c: FP assay for DNA Seq6; range = 95% CI; read-out: Kd. Here is the method:
(§1) All synthetic DNA and RNA oligomers were purchased from Integrated DNA Technologies and reconstituted in nuclease-free water (Invitrogen #AM9932) at 1 mM. The concentration of the oligonucleotides at ˜0.1 mM was calibrated with the A260 value measured by a NanoDrop ND-1000 (Thermo, Waltham, MA, USA) and the predicted extinction coefficient (http://www.oligoevaluator.com) using Lamber-Beer's Law. The risdiplam analogues (1 mM in DMSO) were diluted in 2× assay buffer (40 mM HEPES, 200 mM NaCl for RNA; 40 mM HEPES, 200 mM NaCl, 1 mM MgCl2 for DNA) to make a 1 μM 2× working solution.
(§2) A 1:2 dilution series (8 points) of each oligonucleotide was prepared in 20-30 μL water to desired concentrations (i.e., 1-128 μM). 20-30 μL 2× working solution containing the 2× assay buffer and the small-molecule ligand was added to each oligonucleotide sample in 1:1 (v/v) and mixed by pipetting for 4 times. For fluorescence polarization measurement, 20 μL of the above 1× working solution was transferred into a 384-well, black, F-bottom microplates (Greiner Bio-One) in duplicates or triplicates. The plate was equilibrated at room temperature for 5 min before being read using a microplate reader (SYNERGY H1, BioTek; Excitation/Emission=360/460 nm) at 25° C. For compound SMN-C5, a competitive binding assay was employed to measure an apparent Kd. SMN-C5 was 1:2 serial diluted for 10 concentration points starting at 750 μM in DMSO. A mixture of SMN-C2 (0.5 μM) and DNA Seq6 (25 μM) in 1× assay buffer was prepared and incubated at room temperature for 10 minutes. 3 μL of SMN-C5 solution at each concentration was added to a 42 μL SMN-C2/DNA Seq6 mixture and incubated at room temperature for 10 minutes. The mixture was then transferred into a microplate (20 μL each well) in duplicates for fluorescence polarization readout. The experimental data were analyzed using Prism 8 software (Graphpad Software, San Diego, CA, USA).

The next data set concerns the target RNA Seq4 […]. Kind of data set: FP binding assay, RNA Seq4. The protocol:
as §1, §2

For the next data set, the system named is seq 1-RC. Kind of data set: FP binding assay, reverse complement of seq 1.
For another data set, the system named is SMN2 exon 7 splicing. Kind of data set: Cell-based SMN2 splicing assay in 293T cells (minigene). On the set-up: species or system human. The following applies: for EC50: Homo sapiens, HEK-293T.
For data set [5], the system named is seq 1 (GAUGGAGAG), contains the AUG start codon. In words: FP binding assay, SARS-CoV-2 seq 1 (start codon).
Data set [6] can be described thus: in vitro. The settings on record: human.
For the next data set, the system named is RNA Seq6 UGAAGGAAGGU
Kind of data set: Fluorescence polarization (FP) binding assay, RNA Seq6. Here is the method:
as §1, §2

A short description of data set [7]: in vitro. The settings on record: human. The source holds these as a separate data set.
Data set [8] in a line: in vitro. The settings on record: human. The source holds these as a separate data set.
The target of the next data set is 5′-biotinylated RNA Seq4. Kind of data set: Surface plasmon resonance (SPR) assay, RNA Seq4. In kind it is binding. The following applies: footnote b: SPR assay for RNA Seq4. Here is the method: SPR experiments were performed on a Biacore T200 (GE Healthcare) instrument at 25° C. using streptavidin pre-coated SA sensor chips (GE Healthcare). The running buffer composed of 10 mM HEPES, 100 mM NaCl, 0.05% Tween 20 (w/v), 5 mM EDTA, 0.1% (v/v) DMSO at pH 6.8 was prepared freshly, filtered through the […] PVDF membrane prior to use. 5′-biotinylated RNA Seq4 was purchased from GenScript and dissolved in nuclease-free water to a concentration of 100 μM. For immobilization of the biotinylated RNA, the sensor chip was firstly conditioned with 3 consecutive 1 min injections of high salt solution (50 mM NaOH, 1M NaCl) at a flow rate of […]. Next, the biotinylated RNA was diluted 1000× in running buffer (100 nM) and applied over the streptavidin sensor chip surface at a flow rate of 10 μL/min to achieve immobilization level of about 800 RU. Finally, alkyne-PEG-biotin (50 μM in running buffer) was injected (1 min, […]) to block remaining streptavidin surface binding sites. The kinetics analysis was performed following the BiaControl Software Wizard Kinetics protocol. […] All monitored resonance signals were subtracted with signals from a non-binding reference channel. Kinetic values (Kd, ka, kd) were calculated using the BiaEvaluation Software Binding Affinity protocol with 1:1 fitting. […]

In data set [9] the target is dsRNA Seq18 (5′ splice site of SMN2 exon 7 and U1 snRNA duplex). The following applies: NMR chemical shift assay; cited from earlier work.
Another data set concerns the target DNA Seq6. In words: Competitive FP binding assay (displacement of SMN-C2 from DNA Seq6). The following applies: footnote c: FP assay for DNA Seq6; competition with SMN-C2 (0.5 μM) and DNA Seq6 (25 μM); read-out: Kd (apparent, competitive FP). Here is the method:
as §2

For data set [10], the system named is SMN2 gene vs forkhead box M1 (FoxM1) gene. The following applies: cited from earlier work.
Where [11] appears, read: cell-based SMN2 splicing assay in 293T cells, read-out: SMN2 EC50.

Sequence of von Hippel-Lindau (VHL) E3 ligase (P40337 54-213 limits assumed, species assumed): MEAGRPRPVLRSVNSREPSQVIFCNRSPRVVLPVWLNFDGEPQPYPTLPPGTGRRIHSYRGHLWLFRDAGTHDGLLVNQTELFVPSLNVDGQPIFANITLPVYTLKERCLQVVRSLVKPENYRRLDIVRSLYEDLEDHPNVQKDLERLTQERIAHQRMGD
Sequence of von Hippel-Lindau (VHL) E3 ligase (Q15369 17-112 partner limits assumed, species assumed): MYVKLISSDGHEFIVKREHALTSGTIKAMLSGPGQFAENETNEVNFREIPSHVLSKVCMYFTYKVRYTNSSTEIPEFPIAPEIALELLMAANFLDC
Sequence of von Hippel-Lindau (VHL) E3 ligase (Q15370 whole entry partner, species assumed): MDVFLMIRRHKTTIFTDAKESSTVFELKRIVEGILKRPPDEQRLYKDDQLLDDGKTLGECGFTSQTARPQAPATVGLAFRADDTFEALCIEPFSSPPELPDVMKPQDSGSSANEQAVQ

Regarding `CCOC(=O)C1=C(Nc2ccccc2)S/C(=C\c2ccc(OCCOCCn3cc(COCCOCCOCCOCCN4CCN(c5ccc6cc(-c7cn8ccc(F)cc8n7)c(=O)oc6c5)CC4)nn3)c(O)c2)C1=O` [Compound C47], in the data set on SARS-CoV-2 5′ UTR, the “maximum potency / activity (RNA reduction level)” value is “between those of C64 and C65”. Moreover, in [1] (25 μM, normalized with GAPDH), the “reduction of viral minigene mRNA level” value was ~50%. For the same compound, the “effect on RNA level (RT-qPCR)” value in data set [1] (different concentrations) was “reduce the RNA level in a dose-dependent manner”.

Regarding `Cc1cc([C@H](C(=O)N2C[C@H](O)C[C@H]2C(=O)N[C@@H](CC(=O)N2CCC(C#Cc3ccc(C(=O)N[C@H]4C(C)(C)[C@H](Oc5ccc(C#N)c(Cl)c5)C4(C)C)cc3)CC2)c2ccccc2)C(C)C)on1` [ARD-266], in data set [2], the Kd result is reported as “micromolar”.

Regarding `CC1(C)CC(Oc2ccc(-c3ccc(-c4cn[nH]c4)cc3O)nn2)CC(C)(C)N1` [branaplam], the “number of genes whose splicing is significantly affected” value in the data set on gene splicing was 36 genes.

`O=c1oc2cc(N3CCNCC3)ccc2cc1-c1cn2ccc(F)cc2n1` [Compound C30, 3-(7-fluoroimidazo[1,2-a]pyridin-2-yl)-7-(piperazin-1-yl)-2H-chromen-2-one]: the Kd in data set [3] (Table 3) was 0.21 ± 0.04 µM; in [3] (Table 4), 0.21 ± 0.4 µM. Further, the “binding site within SL5” value with SARS-CoV-2 SL5 RNA is “selectively binds to the RNA structure containing the bulged G in SL5”.

Take `Cc1cn2cc(-c3cc4ccc(N5CCN[C@@H](C)C5)cc4oc3=O)nc2c(C)n1` [Compound C4, (S)-3-(6,8-dimethylimidazo[1,2-a]pyrazin-2-yl)-7-(3-methylpiperazin-1-yl)-2H-chromen-2-one, reference compound]: the Kd in data set [4] worked out at 2.9 ± 0.3 µM; on RNA Seq4 […], 25.4 ± 7.3 µM; in [3] (Table 3), 1.3 ± 0.3 µM; in [3] (Table 4), 1.3 ± 0.3 µM. Moreover, the “binding to seq 1-RC” value in the data set with seq 1-RC is recorded as “does not bind”. Further, the EC50 in the data set on SMN2 exon 7 splicing (Table 3, read-out: SMN2 Splicing EC50) was 0.0139 ± 0.0026 µM; in the data set with SMN2 exon 7 splicing (setting [11]), 0.014 ± 0.003 µM. In addition, in data set [5], the “binding to seq 1” value was “preferentially binds to seq 1”. The CC50 in “in vitro [6]” was > 13 µM.

With `Cc1cn2cc(-c3cc4ccc(N5CCN(CCNC(=O)OC(C)(C)C)[C@@H](C)C5)cc4oc3=O)nc2c(C)n1` [Compound C6, (S)-tert-butyl(2-(4-(3-(6,8-dimethylimidazo[1,2-a]pyrazin-2-yl)-2-oxo-2H-chromen-7-yl)-2-methylpiperazin-1-yl)ethyl)carbamate], the Kd in [4] was 4 ± 0.3 µM; on RNA Seq4 […], 37.5 ± 14 µM; in data set [3] (Table 3), 3 ± 0.4 µM; in data set [3] (Table 4) it was 3.03 ± 0.4 µM; at RNA Seq6 UGAAGGAAGGU (footnote d: FP assay for RNA Seq6, read-out: Kd), 51.2 ± 4.9 µM. In the data set with RNA Seq6 UGAAGGAAGGU (Table 1 RNA Seq6 (SMN-C2) vs Table 2 entry 6), the “reduction of binding to RNA Seq6 by the Boc group” value is listed as ~3 fold. Further, in the data set on SMN2 exon 7 splicing (setting [11]), the EC50 was > 8 µM. In addition, in the data set with SMN2 exon 7 splicing (cellular SMN2 splicing assays), the “splicing modulation in cells” value was “without showing any observable splicing modulation”.

Take `CCN1CCN(c2cc(C)c3nc(-c4cc5c(C)nc(C)cn5n4)cc(=O)n3c2)CC1` [Compound C3, 2-(4,6-dimethylpyrazolo[1,5-a]pyrazin-2-yl)-7-(4-ethylpiperazin-1-yl)-9-methyl-4H-pyrido[1,2-a]pyrimidin-4-one, reference compound]: the CC50 in the data set “in vitro [7]”, in “in vitro [8]” and in the data set “in vitro [6]” was > 30 µM in each case. For the same compound, the “number of genes whose splicing is significantly affected” value with gene splicing is 13 genes.

For `Cc1cn2cc(-c3cc(=O)n4cc(N5CCN(C)CC5)ccc4n3)cc(F)c2n1` [SMN-C5, 2-(8-fluoro-2-methylimidazo[1,2-a]pyridin-6-yl)-7-(4-methylpiperazin-1-yl)-4H-pyrido[1,2-a]pyrimidin-4-one], the Kd on 5′-biotinylated RNA Seq4 is 8 µM; in data set [9] it was 28 ± 9 µM; at DNA Seq6 it was 5.8 ± 2.5 µM. In addition, the EC50 in the data set on SMN2 exon 7 splicing (setting [11]) is 0.059 ± 0.009 µM.

For the compound `CCc1nc(C)cn2nc(-c3cc(=O)n4cc(C5CCN(C)CC5)cc(C)c4n3)cc12` [RG-7800], the “sensitivity of SMN2 gene compared to FoxM1” value in data set [10] was ~10 times.

By EC50 is commonly meant the concentration that produces a half-maximal response.
